We go through three compounds from patent US7125671B2, “Nucleic acid amplification with terminal-phosphate labeled nucleotides” (GE Healthcare Bio-Sciences Corp., priority 2003, dated 2006).

One data set relates to T. ba polymerase. The experiment in a line: PCR amplification with terminal-phosphate labeled nucleoside polyphosphates in the presence of stabilizing additives (FIG. 6). In kind it is biochemical, Thermococcus barosii. The following applies: dT4P-Me, dC4P-Me, 0.25 mM MnCl2, M13 DNA, 35 cycles. Here is the method: Polymerase chain reaction (PCR) mixtures (20 μl) contained 25 mM Hepes (pH 8.1), 10 mM KCl, 2 mM MgSO4, 0.25 mM MnCl2, 1 mg/ml bovine serum albumin, 0.01% (v/v) Tween-20 and 10–25 mM salt as shown in FIG. 6. Each sample also contained 20 μm each of dA4P-Me, dT4P-Me, dC4P-Me, 200 μm dG4P-FlEt, 0.006 units/μl BAP, 2 units of T. ba polymerase, 0.1 μm −40 M13 forward primer, 0.1 μm −28 M13 reverse primer and 0.2 ng M13 DNA. In addition to the terminal-phosphate labeled nucleotide, terminal methyl-blocked dNTP's were used instead of normal dNTP's to prevent degradation by BAP (phosphatase). Latter is required for signal generation from dye-polyphosphate after the nucleotide is incorporated into DNA by polymerase. Reactions were carried out for 35 thermal cycles of 90° C., 30 sec.; 55° C., 30 sec.; and 65° C., 300 sec. Reaction products were loaded onto 1.6% agarose gels. The gels were stained with SYBR Gold (Molecular Probes) according to the manufacturers' instructions and scanned at 532 nm using a Typhoon fluorescence scanner (Amersham Biosciences). Gel size markers were a 100 bp ladder (Amersham Biosciences).

Data set [1] has as its target pfu (with A486Y mutation) polymerase (Pyrococcus furiosus, UniProt P61875, A486Y). The experiment in a line: Quantitative PCR with terminal-phosphate labeled nucleoside polyphosphates on ABI 7900. Type of data set: biochemical. Particulars: 200 μm dG4P-FlEt with dA4P-Me, dT4P-Me, dC4P-Me; BAP; 50 cycles; FIG. 7. How it is done:
Polymerase chain reaction (PCR) mixtures (20 μl) contained 25 mM Tris.HCl (pH 9.0), 10 mM KCl, 2 mM MgSO4, 0.25 mM MnCl2, 1 mg/ml bovine serum albumin and 0.01% (v/v) Tween-20. Each sample also contained 20 μm each of dA4P-Me, dT4P-Me, dC4P-Me, 200 μm dG4P-FlEt, 0.005 units/μl BAP, 2 units of pfu (with A486Y mutation) polymerase, 0.1 μm −40 M13 forward primer, 0.1 μM −28 M13 reverse primer and 1.2×10^6–1.2×10^9 copies of M13 DNA. In addition to the terminal-phosphate labeled nucleotide, the remaining nucleotides were blocked with a methyl group on the terminal phosphate to prevent degradation by BAP. Reactions were carried out for 50 thermal cycles of 90° C., 30 sec.; 55° C., 30 sec.; and 65° C., 300 sec on ABI 7900 instrument.
Reaction products were also loaded onto 1.6% agarose gels. The gels were stained with SYBR Gold (Molecular Probes) according to the manufacturers' instructions and scanned at 532 nm using a Typhoon fluorescence scanner (Amersham Biosciences) to show the formation of PCR product (FIG. 8). Gel size markers were a 100 bp ladder (Amersham Biosciences).

Data set [2] can be described thus: Non-enzymatic hydrolysis of dT4P-DDAO in the presence of MnCl2, effect of ammonium sulfate and related salts (FIG. 4). In kind it is physicochemical. Particulars: 10 mM salt; 0.5 mM MnCl2; 25 mM Tris.HCl pH 9.0; 95° C. for 60 minutes. Here is the method:
Four μl of each reaction mix was mixed with 16 μl of BAP solution in Hepes (0.005 units BAP/μl) and incubated at 37° C. for 60 minutes. Samples were read on Tecan ultra plate reader. Un heated sample and unheated sample without MnCl2 were used as controls. Raw fluorescence counts were converted into % degradation by using fluorescence counts from a Snake Venom phosphodiesterase hydrolyzed sample as 100% degraded sample.

Data set [3] is described as follows: Non-enzymatic hydrolysis of dT4P-DDAO in the presence of MnCl2, effect of other salts (FIG. 5). Particulars: 10 or 25 mM salt; 0.5 mM MnCl2; 25 mM Hepes pH 8.1; 95° C. for 60 minutes. Here is the method: Twenty μl of 25 mM Hepes, pH 8.1, containing 0.5 mM MnCl2, 1 μm dT4P-DDAO and 10 or 25 mM inorganic or organic salt (see FIG. 5) was heated at 95° C. for 60 minutes. 4 μl of each sample was treated with BAP as described above and read on Tecan ultra plate reader. An unheated sample with MnCl2 (water lane) and a heated sample without Hepes and MnCl2 were used as controls. Fluorescence counts were converted into % degradation as described above.

Data set [4] can be described thus: Non-enzymatic hydrolysis of terminal-phosphate labeled nucleoside polyphosphate on thermal cycling, effect of glycerol. In kind it is physicochemical. The following applies: 5% glycerol; high temperatures. How it is done: Seventy μl samples containing 50 mM Hepes, pH 8.0, 5 mM MgCl2, 0.5 mM MnCl2, 0.01% Tween-20, 1 μm ddT4P-EtFl, 100 nM primer/template, 0.0036 units/μl SAP with or without 5% glycerol were cycled as follows: 95° C., 30 sec and 50° C., 3 min, repeat 10 times. Amount of free dye formed was checked in a fluorimeter.

Sequence of pfu (with A486Y mutation) polymerase (P61875 whole entry A486Y): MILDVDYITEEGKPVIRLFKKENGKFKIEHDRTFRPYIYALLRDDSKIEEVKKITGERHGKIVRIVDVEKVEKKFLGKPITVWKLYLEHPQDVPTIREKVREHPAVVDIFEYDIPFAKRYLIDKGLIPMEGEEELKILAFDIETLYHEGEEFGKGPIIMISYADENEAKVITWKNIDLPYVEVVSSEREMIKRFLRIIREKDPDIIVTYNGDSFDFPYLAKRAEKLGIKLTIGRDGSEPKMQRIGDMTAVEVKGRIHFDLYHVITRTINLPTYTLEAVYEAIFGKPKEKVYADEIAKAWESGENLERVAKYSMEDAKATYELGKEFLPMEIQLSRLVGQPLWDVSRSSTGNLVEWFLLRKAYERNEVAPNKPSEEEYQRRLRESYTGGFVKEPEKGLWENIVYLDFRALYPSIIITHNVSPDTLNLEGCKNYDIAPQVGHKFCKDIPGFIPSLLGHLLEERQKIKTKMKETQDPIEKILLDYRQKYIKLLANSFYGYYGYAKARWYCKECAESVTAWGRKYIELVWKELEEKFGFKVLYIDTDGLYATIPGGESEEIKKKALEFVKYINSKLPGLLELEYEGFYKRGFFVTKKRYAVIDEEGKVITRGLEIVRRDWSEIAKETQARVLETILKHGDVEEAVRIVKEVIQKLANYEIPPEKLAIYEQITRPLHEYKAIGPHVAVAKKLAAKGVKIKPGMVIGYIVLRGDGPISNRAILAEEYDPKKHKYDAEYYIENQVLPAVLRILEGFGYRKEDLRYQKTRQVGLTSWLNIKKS

In the case of `CCOc1ccc2c(c1)Oc1cc(OP(=O)(O)OP(=O)(O)OP(=O)(O)OP(=O)(O)OC[C@H]3O[C@@H](n4cnc5c(=O)[nH]c(N)nc54)C[C@@H]3O)ccc1C21OC(=O)c2ccccc21` (stereo partly drawn) [dG4P-FlEt, 2′-Deoxyguanosine-5′-(δ-3′-(6′-ethoxyfluorescein)) tetraphosphate], in the data set on T. ba polymerase (absence of any stabilizer, with dA4P-Me), the PCR product formation entry was “PCR product was separated”. In data set [1], the “cycle count at fluorescence threshold plotted against input M13 DNA copies” value is on record as “straight line”.
For `N.N.O=S(=O)(O)O` [ammonium sulfate], the “stabilization of dT4P-DDAO (% degradation)” value in data set [2] is given as “clearly stabilizes”; in data set [3], “stabilize the nucleotide”. The “PCR product formation in the presence of the additive” value with T. ba polymerase (10–25 mM salt, dA4P-Me, dG4P-FlEt) was “PCR product was separated”.
Consider `OCC(O)CO` [glycerol], for which the “effect of additive on degradation of ddT4P-EtFl caused by manganese” value in data set [4] is on record as “reduces the amount of degradation caused by manganese”.
